Measured values as given in publication PMC8891108, “Development and characterization of anti-fibrotic natural compound similars with improved effectivity” (Basic Research in Cardiology, 2022).
Like-named read-outs stand apart in the source and are kept apart here.

Columns and labels:
Type in all cases: cell-based
[1] = system: human cardiac fibroblasts (HCF); assay: BrdU incorporation, HCF proliferation (first screen); conditions: for EC50: Homo sapiens, Cardiac fibroblast, read-out: Effective conc. (BrdU), EC50 by BrdU assay
Method: 96-well plates (TPP) were coated with 0.1% gelatine and seeded with 7500 HCFs/well. After 72 h, medium was exchanged with serial dilutions of compounds in FGM-3 + 1.6% DMSO + 1% 5-bromo-2′-deoxyuridine (BrdU, Roche, #11647229001), prepared in additional plates. After 24 h, cells were washed twice with DPBS (Gibco, #14190144) before incubation with anti-BrdU:POD (Roche, #11647229001) for 60 min (RT). Readout was performed by measurement of absorbance at 370 nm + 490 nm in a Synergy HT (BioTek) microplate reader. […] As validation, HCF were seeded as before, but treated with serial dilutions of compounds after 24 h. […] After 60 min of incubation (37 °C, in the dark), absorbance at 450 nm + 630 nm was measured maintaining 37 °C and analysed as described before.
To assess screening quality, quality acceptance criteria Z′ (Z prime), SW (signal window), S:B (signal-to-background), S:N (signal-to-noise) were determined following. Average Z′ ≥ 0.5 and SW ≥ 2 were required to accept the screening overall, whereas single plates were rejected from analysis if Z′ < 0.3 or SW < 1.

[2] = system: human cardiac fibroblasts (HCF); assay: In vitro migration (scratch) assay of HCF; conditions: 10 × EC50
Method: To assess migrative capabilities of HCF, cells were stained with 1:1000 1,1′-Dioctadecyl-3,3,3′,3′-Tetramethylindotricarbocyanine Iodide (DIR′) dye in FGM-3 for 20 min at 37 °C. Cells were washed with DPBS and seeded into 0.1% gelatine-coated 96-well plates at 30,000 cells per well. […] After 17 h and 24 h, plates were imaged again. Rate of migration was determined using the migrative index (MI).

[3] = system: human cardiac fibroblasts (HCF); assay: TaqMan Array Human MicroRNA Cards, miRNA deregulation in HCF
Method: PCR amplification of array cards was performed as instructed. After quality control of all real-time qPCRs, cT values were exported and all runs were merged into a single excel file. Recommended baseline correction using relative thresholds to correct for varying reconstitution rates of different Taqman probes was not performed. Low-expressed miRNAs with cT > 32 in more than 1 replicate per treatment were excluded from analysis, before samples were normalized to column mean. Multiple unpaired t tests were performed using GraphPad Prism, deregulations were accepted as discoveries if FDR ≤ 1% (using BKY adjustment). As miRNA identifiers were based on miRbase v14, we converted them to the latest v22 for further analysis using miRBaseConverter. 747 sequences could be converted correctly, while the remaining miRNAs were removed from miRbase due to incorrect annotation (e.g. the sequences of hsa-miR-886-3p and hsa-miR-886-5p are part of VTRNA2-1 [44]) or no evidence of human expression.

[4] = system: human cardiac fibroblasts (HCF); assay: Caspase-3/7 activation (Caspase-Glo) in HCF; conditions: within the tested concentration range
Method: (§1) As contrast to activity, toxicity of top six similars and lead compounds was determined by a multiplex measurement of caspase activation and membrane integrity (using LDH release and inclusion of the CellTox Green dye). Briefly, HCFs were seeded as before. After 24 h, cells were treated with serial dilutions of compounds with additional 0.1% CellTox™ Green dye (Promega, #G8741). After 24 h incubation, 5 µL medium was removed from each well, mixed with 95 µL LDH Storage buffer (Promega, #J2380) and frozen for later analysis. 95 µL Caspase-Glo® 3/7 reagent (Promega, #G8090) was added to each well, and after 60 min of incubation luminescence was measured in a Synergy HT. Afterwards, micrographs of brightfield and green fluorescence were taken using a Cytation 1 (BioTek) automated microscope maintaining 37 °C and 5% CO2. Wells were manually checked for co-localization of fluorescence signal with cells in brightfield. On the next day, supernatants in LDH Storage buffer were thawed, and 50 µL was mixed with 50 µL of LDH Detection reagent and luminescence was measured after 60 min of incubation. Dose–response curves were determined as described before. To determine toxicity of the top 3 anti-fibrotic similars in hiPS-CM, 20,000 cells/well were seeded, treated and analysed as above, devoid the fluorescent dye steps.

[5] = system: human iPS-derived cardiomyocytes (hiPS-CM); assay: Caspase-3/7 activation in hiPS-CM; conditions: maximal available concentration
Method: as §1

[6] = system: human iPS-derived cardiomyocytes (hiPS-CM); assay: LDH release in hiPS-CM; conditions: maximal available concentration
Method: as §1

[7] = system: human cardiac fibroblasts (HCF); assay: nCounter Fibrosis Panel mRNA profiling of HCF; conditions: 24 h treatment
Method: Briefly, 100 ng/5µL isolated total RNA of HCF after 24 h treatment (RIN > 7.5 and […] > 88%) was mixed with the hybridization Master Mix and incubated at 65 °C for 20 h before loading on a nCounter® FLEX (Department of Pathology, Hannover Medical School, Germany). All run files (.RCC) were compiled into a single experiment using the nSolver analysis software. […] Reference genes for normalization were determined by nSolver using all samples (ACAD9, ARMH3, CNOT10, GUSB, MTMR14, NOL7, NUBP1, PGK1, PPIA, RPLP0, see supplemental Fig. 4e, f). We then used the Advanced analysis plugin (v2.0.115) including LOT as confounder variable and BY adjusted p value < 0.05 for identification of central deregulated pathways. Additionally, normalized counts were further analysed with GraphPad Prism using multiple unpaired t tests with FDR ≤ 5% after BKY adjustment and log2 |FC| ≥ 1.

[8] = system: human cardiac fibroblasts (HCF); assay: Global RNA sequencing of treated HCF
Source text: The NEBNext Ultra II Directional RNA Kit was used to prepare the samples (the same as for the nCounter® Fibrosis Panel, see above) for subsequent deep sequencing on a NovaSeq PE50 (Illumina) at HZI Braunschweig (Germany). Reads were trimmed and mapped to the human genome hg38.79 using RNA STAR (v2.4.2a, [11]) by HZI Braunschweig. RAW read counts were further analysed on Galaxy (v3.38.3, usegalaxy.org, [2]) using the limma-voom method. Low-expressed transcripts without more than 0.25 CPM (counts per million reads mapped) in at least 3 samples (42,079 of 61,043) were filtered out, and TMM (trimmed mean of M values) was the method used to normalise library sizes. Changes in transcript expression were considered significant if FDR [4] ≤ 0.05 and log2 |FC| ≥ 1.3.

[9] = system: human living myocardial slices; assay: Ex vivo human living myocardial slices, qPCR gene expression; conditions: 48 h
Source text: Myocardial slices were generated from human left ventricular heart specimens taken from failing hearts at the time of transplantation. Tissue was obtained from the Clinic for Cardiac, Thoracic, Transplant and Vascular Surgery at the Hannover Medical School (MHH), Hannover, Germany. Patients provided informed consent to the scientific use of the explanted tissue.
The preparation and culture of myocardial slices has been described before. Briefly, human heart specimens were sliced into 300 µm thick slices using a vibrating microtome (Campden Instruments, #7000smz-2) while in ice-cold 30 mM 2,3-butanedione monoxime + 1 mM D-glucose + 10 mM HEPES + 6 mM KCl + 140 mM NaCl + 1 mM MgCl2 + 1.8 mM CaCl2 (cardioplegic Tyrode’s solution), before being trimmed into approx. 7 × 7 mm pieces of aligned muscle fibres.
After 48 h in culture, myocardial slices were frozen in liquid nitrogen and stored at −80 °C for further gene expression analysis.
(§2) A mix of forward and reverse primer pairs (10 µM, Eurofins) or 10 × Quantitect Primer Assay (Qiagen, #249900) was used for mRNA. To measure miRNA, RNA was reverse-transcribed using the miRNA TaqMan MicroRNA Reverse Transcription Kit (Applied Biosystems, #4366597) with specific miRNA RT primers (ThermoFisher, #4427975). cDNA was diluted 1:3 with dH2O before qPCR with Absolute Blue qPCR Mix (Abgene, #AB-4136/B) and the specific Taqman probes (ThermoFisher, #4427975). Runs were performed in ViiA7 (Applied Biosystems) or QuantStudio 7 Flex (Applied Biosystems). Real-time qPCR data were analysed as described elsewhere.

[10] = system: human cardiac fibroblasts (HCF); assay: miRNA mimic / inhibitor transfection before compound treatment, WST-1 readout
Method: as §2
To determine whether these miRNAs are part of and essential to the mechanism of action of the compounds, we transfected HCF with miR mimics or inhibitors of the miRNA candidates prior to compound treatment. If a miRNA is essential for the compounds’ mechanism, we would expect the absence of anti-proliferative effects after inhibition of this miRNA, whereas anti-proliferative effects would remain if the miRNA is rather a downstream element of the compound response.

[11] = mean of DMSO minus mean of treatment

**Q.** How did the EC50 ([1]; 24 h) turn out when `C[C@]12CC[C@H](O)C[C@H]1CC[C@@H]1[C@@H]2CC[C@]2(C)[C@@H](c3ccc(=O)oc3)CC[C@]12O` [Bufalin, bufalin] was run?
**A.** 2.1 nM

**Q.** What about the HCF migration [2] of the same compound?
**A.** nearly complete lack of migration within the first half hour

**Q.** And the “Mean of treatment, hsa-miR-125a-5p-002198” value ([3]; cT normalized to column mean)?
**A.** -1.094

**Q.** And the “Mean of treatment, hsa-miR-132-000457” value ([3]; cT normalized to column mean)?
**A.** -3.644

**Q.** And the “Mean of treatment, hsa-miR-146a-000468” value ([3]; cT normalized to column mean)?
**A.** -6.478

**Q.** What about the “Mean of treatment, hsa-miR-886-3p-002194” value ([3]; cT normalized to column mean) of the same compound?
**A.** -0.5419

**Q.** What about the “Difference / ΔCT, hsa-miR-125a-5p-002198” value [3, 11] of the same compound?
**A.** -1.48

**Q.** And the “Difference / ΔCT, hsa-miR-132-000457” value [3, 11]?
**A.** 1.1

**Q.** What about the “Difference / ΔCT, hsa-miR-146a-000468” value [3, 11] of the same compound?
**A.** -1.167

**Q.** And the “Difference / ΔCT, hsa-miR-886-3p-002194” value [3, 11]?
**A.** -2.302

**Q.** What about the “induction of Caspase-3/7” value [4] of the same compound?
**A.** dose-dependent induction of Caspase-3/7

**Q.** How did the Caspase-3/7 activation [5] turn out when `COc1cccc2c1C(=O)c1c(O)c3c(c(O)c1C2=O)C[C@@](O)(C(=O)CO)C[C@@H]3O[C@H]1C[C@H](N)[C@H](O)[C@H](C)O1` [doxorubicin] was run?
**A.** Caspase-3/7 activation

**Q.** And the LDH release [6]?
**A.** increased LDH release

**Q.** For `COC(=O)C[C@](O)(CCCC(C)(C)O)C(=O)O[C@@H]1C(OC)=C[C@]23CCCN2CCc2cc4c(cc2[C@H]13)OCO4` [lyco-s, homoharringtonine], which “deregulation of fibrosis panel genes / pathways” value [7] is on record?
**A.** repressed genes related to endothelial mesenchymal transition (EMT), ECM homeostasis as well as collagen biosynthesis

**Q.** And the “downregulation of high- to medium-expressed collagen isoforms” value [8]?
**A.** approx. 90%

**Q.** What about the “expression of FN1, PTN and BGN” value [8] of the same compound?
**A.** significantly downregulated

**Q.** What about the “differentially expressed genes (DEGs) vs DMSO control” value ([8]; RNA sequencing) of the same compound?
**A.** over 4000

**Q.** What about the “expression of collagen isoforms” value ([8]; top 20 expressed isoforms) of the same compound?
**A.** approx. tenfold

**Q.** What about the “inhibitory activity on HCF proliferation” value ([1]; BrdU incorporation) of the same compound?
**A.** showed inhibitory activity

**Q.** And the “EC50 fold lower than the EC50 of lycorine” value ([1]; HCF proliferation)?
**A.** over 100 fold

**Q.** What about the EC50 ([1]; HCF, 24 h treatment) of the same compound?
**A.** 34 nM

**Q.** What about the “FAP expression (qPCR)” value [9] of the same compound?
**A.** significant down-regulation

**Q.** And the “MMP2 expression (qPCR)” value [9]?
**A.** significant down-regulation

**Q.** And the HCF migration [2]?
**A.** repressed migration only after several hours

**Q.** And the “Mean of treatment, hsa-miR-28-3p-002446” value ([3]; cT normalized to column mean)?
**A.** -2.759

**Q.** And the “Mean of treatment, hsa-miR-342-3p-002260” value ([3]; cT normalized to column mean)?
**A.** -3.581

**Q.** What about the “Difference / ΔCT, hsa-miR-28-3p-002446” value [3, 11] of the same compound?
**A.** 0.9679

**Q.** What about the “Difference / ΔCT, hsa-miR-342-3p-002260” value [3, 11] of the same compound?
**A.** 1.208

**Q.** What about the “anti-proliferative effect after inhibition of hsa-miR-132-3p” value [10] of the same compound?
**A.** protected

**Q.** And the “anti-proliferative effect after overexpression of hsa-miR-125a-5p” value [10]?
**A.** partially protected against the anti-proliferative effect
